The values that follow come from PubChem BioAssay (NCI).

SMILES strings stand for the structures.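 All cell lines were grown in 96-well plates and treated with compound for 48 hours. TGI: concentration producing complete growth inhibition.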 Some results are limits rather than exact numbers.

Among the test systems are HCC-2998 colon; MDA-MB-435; UACC-257 melanoma; HCT-116 colon; TK-10 renal; SW-620 colon; HT29 colon; SF-268 CNS; BT-549 breast; HOP-92 NSCLC.
Common to all, as to experiment: inhibition of tumour cell growth, NCI panel, 48 h

With `CN(C)CCNC(=O)c1cccc2nc3c(C(=O)NCCN(C)C)cccc3nc12`, the TGI in the assay on HCC-2998 colon came to 4.12 µM; in the assay on MDA-MB-435, 2.59 µM; in the assay with UACC-257 melanoma, 4.08 µM; with HCT-116 colon, 13.4 µM; in the assay on TK-10 renal, 6.81 µM; in the assay with SW-620 colon, 12.1 µM. Moreover, the TGI with HT29 colon is 3.49 µM; in the assay on SF-268 CNS it was 4.84 µM; in the assay on BT-549 breast it was 15.9 µM; in the assay on HOP-92 NSCLC, 7.83 µM.

With `Cc1ccc(-c2cc[n+]3c(n2)oc2ccccc23)cc1`, the TGI with HCC-2998 colon is over 100 µM; in the assay on MDA-MB-435, 57.6 µM; in the assay with UACC-257 melanoma, 59.2 µM; with HCT-116 colon it was over 100 µM; in the assay on SW-620 colon, over 100 µM; in the assay on SF-268 CNS, over 100 µM. The TGI is 76.6 µM in the assay on BT-549 breast and 47.3 µM in the assay with HOP-92 NSCLC.

For `CCC(CC)(CO)CNc1cc(Cl)nc(N)n1`, the TGI in the assay on MDA-MB-435, in the assay with UACC-257 melanoma, in the assay with HCT-116 colon, in the assay on TK-10 renal, in the assay with SW-620 colon and in the assay with HT29 colon was over 100 µM throughout. Also, the TGI in the assay on SF-268 CNS, in the assay with BT-549 breast and in the assay with HOP-92 NSCLC was over 100 µM throughout.

With `N#Cc1cc(Sc2ccc(N)c(C#N)c2)ccc1N`, the TGI with MDA-MB-435 was 12.6 µM; in the assay on UACC-257 melanoma it was over 100 µM; with HCT-116 colon, 34.4 µM; in the assay with TK-10 renal, over 100 µM; in the assay with SW-620 colon, over 100 µM; in the assay with HT29 colon, 30.9 µM. Moreover, the results for the TGI in the assay on SF-268 CNS, with BT-549 breast and in the assay with HOP-92 NSCLC were 59 µM, over 100 µM and over 100 µM, respectively.

Take `CCN(CC)CC1CN=C(N)O1` (stereo not drawn): the TGI in the assay on HCC-2998 colon, with MDA-MB-435, with UACC-257 melanoma, in the assay on HCT-116 colon, in the assay on SW-620 colon and with BT-549 breast was over 100 µM each time. For the same compound, the TGI with HOP-92 NSCLC is over 100 µM.

On to `COC(=O)C1=C(O)CCCC(C2CCCCC(=O)C2C(=O)OC)=C1` (stereo not drawn), for which the TGI was 91.6 µM in the assay with HCC-2998 colon; over 100 µM in the assay with MDA-MB-435; over 100 µM with UACC-257 melanoma; over 100 µM with HCT-116 colon; over 100 µM with TK-10 renal; over 100 µM with SW-620 colon. Further, the TGI in the assay with HT29 colon, in the assay with BT-549 breast and in the assay on HOP-92 NSCLC was over 100 µM each time.

On to `O=c1[nH]nc(Nc2ccccc2)c2nnn(C3CCCCC3)c12`, for which the TGI with HCC-2998 colon, with MDA-MB-435, in the assay on UACC-257 melanoma, in the assay with HCT-116 colon, in the assay on TK-10 renal and with HT29 colon was over 100 µM each time. The TGI in the assay with BT-549 breast and in the assay with HOP-92 NSCLC was over 100 µM throughout.

For the compound `Cc1cc(Nc2ccc(NS(C)(=O)=O)cc2)c2c(ccc3nccc32)[nH]1`, the TGI was 30.5 µM in the assay with MDA-MB-435; 34.7 µM in the assay with UACC-257 melanoma; 37.9 µM in the assay on HCT-116 colon; over 100 µM in the assay with TK-10 renal; over 100 µM in the assay on SW-620 colon; 89.3 µM in the assay on HT29 colon. The TGI with SF-268 CNS was 23 µM; in the assay on BT-549 breast it was 43.9 µM; in the assay on HOP-92 NSCLC, 65.6 µM.

Take `Cc1nc2c(cc1OCc1ccccc1)C(=O)C1=C(C2=O)C2OC(=O)CC2OC1(C)C` (stereo not drawn): the TGI in the assay with HCC-2998 colon was determined as 1.91 µM; in the assay with MDA-MB-435 it was 1.8 µM; with UACC-257 melanoma it was 1.93 µM; in the assay on HCT-116 colon, 1.04 µM; in the assay with TK-10 renal, 2.75 µM; in the assay on HT29 colon, 1.41 µM. For the same compound, the results for the TGI with BT-549 breast and in the assay with HOP-92 NSCLC were 1.88 µM and 1.42 µM, respectively.

Turning to `CCCCSC1=N/C(=C\c2ccc(N(C)C)cc2)C(=O)N1`, the TGI was over 100 µM in the assay with MDA-MB-435; 56.7 µM in the assay on UACC-257 melanoma; 74.9 µM in the assay with HCT-116 colon; over 100 µM in the assay with TK-10 renal; over 100 µM in the assay on SW-620 colon; 36.8 µM with HT29 colon. Further, the TGI in the assay with SF-268 CNS was over 100 µM; in the assay on BT-549 breast, over 100 µM; in the assay with HOP-92 NSCLC, 96.2 µM.

Turning to `CN1CCc2c(sc3ncn(Nc4ccc(Cl)cc4)c(=N)c23)C1`, the TGI in the assay on MDA-MB-435, in the assay with UACC-257 melanoma, with HCT-116 colon, in the assay with TK-10 renal, in the assay on SW-620 colon and in the assay with HT29 colon was over 100 µM in each case. The TGI with SF-268 CNS, in the assay on BT-549 breast and in the assay with HOP-92 NSCLC was over 100 µM throughout.

Turning to `CCN(CC)c1ccc(/C=C2\CCc3ccc([N+](=O)[O-])cc3C2=O)cc1`, the TGI was over 100 µM with HCC-2998 colon; 0.744 µM in the assay on MDA-MB-435; over 100 µM with HCT-116 colon; over 100 µM with TK-10 renal; over 100 µM in the assay with SW-620 colon; 2.21 µM in the assay on HT29 colon. The TGI in the assay with SF-268 CNS, in the assay with BT-549 breast and in the assay with HOP-92 NSCLC was over 100 µM in each case.

As for `COc1cccc2cc(C(=O)Nc3ccccc3)c(=N)oc12`, the TGI in the assay with MDA-MB-435, in the assay with UACC-257 melanoma, with HCT-116 colon, with TK-10 renal, in the assay with SW-620 colon and in the assay on HT29 colon was over 100 µM in each case. Also, the TGI with SF-268 CNS, with BT-549 breast and in the assay on HOP-92 NSCLC was over 100 µM in each case.
